This passage reports IC50 results from patent US10633394B2, “Heterocyclic derivatives and use thereof” (C & C RESEARCH LABORATORIES, priority 2014, dated 2020).

Type in all cases: cell-based
In one test the target is T1, STAT3 (Homo sapiens, UniProt P40763).
T1 construct: plasmid pSTAT3-TA-luc), which contains a stably operating STAT3 promoter; endogenous in cells
Nature of the test: STAT3 reporter gene (luciferase) assay in LNCaP stable cell line stimulated with IL-6. As to conditions: LNCaP stable cell line (pSTAT3-TA-luc), IL-6 10 ng/mL, 24 hours. On the procedure: 1-1) Experiment on the Inhibition of STAT3 Activity
A human prostate cancer cell line (LNCaP stable cell line; plasmid pSTAT3-TA-luc), which contains a stably operating STAT3 promoter, was cultured in RPMI1640 medium (Cat No. 11875, Life Technologies) containing 10% fetal bovine serum (FBS) (Cat No. SH30396, Thermo Scientific) and 150 μg/mL G-418 solution (Cat No. 04 727 894 001, Roche). The reporter gene assay using LNCaP stable cell line was performed in RPMI1640 medium containing 3% DCC-FBS without G-418 solution. LNCaP stable cells were plated in two (2) white 96-well plates with 30,000 cells/50 μL in each well. The cells were cultured at 37° C., under 5% CO2 for 24 hours, and then treated with the compounds listed in Examples which were diluted in various concentrations. Subsequently, IL-6 was added to each well with a final concentration of 10 ng/mL. Upon completion of the treatment with the compounds and IL-6, the cells were cultured at 37° C., under 5% CO2 for 24 hours. The plates were observed under microscope and drug precipitation and particular findings were investigated and recorded.
The luciferase assay and the cell viability assay were performed respectively with one of the two plates. For the luciferase assay, the liquid media in the 96-well plate was removed, and then, 20 μL of passive cell lysis buffer was added to each well. After shaking the plate for 30 minutes, luciferase activities of each well were measured in a PHERAstar™ microplate reader (BMG LABTECH) using a luciferase assay system (Cat No. E1501, Promega). For the cell viability assay, the 96-well plate was placed at room temperature for 30 minutes, added with 20 μL/well of CellTiter-Glo solution (Cat No. G7573, Promega), and shaken for 10 minutes in order to measure cytotoxicity caused by the compounds listed in Examples with a PHERAstar™ microplate reader (BMG LABTECH). Wells without 0.1% DMSO and stimulation were used as a negative control and wells with 0.1% DMSO and stimulation were used as a positive control.
The results of evaluation on the inhibitory effect of the compounds listed in the Examples on the dimerization of STAT3 and STAT1 obtained via the STAT3 and STAT1 reporter gene assays are shown in Table 6 below.
For orientation: A reporter such as luciferase makes a cellular process visible.

In another test the test system is NCI-N87. As to the kind of experiment: Cell growth inhibition assay (CellTiter-Glo), stomach cancer cell line NCI-N87. As to conditions: Homo sapiens; NCI-N87 cells, 96 hours. On the procedure: (§1) The inhibitory effects of the compounds of the present invention against the growth of cancer cells were evaluated as shown below. The cancer cell lines including stomach cancer cell line (NCI-N87) and breast cancer cell line (MDA-MB-468) were cultured under the protocol provided by each supplier. Each type of cells to be used in experiments was sub-cultured in a 96-well plate by counting the exact number of cells using Tali™ Image-based Cytometer (Life Technologies). In a 96-well plate, NCI-N87 was employed with 5,000 cells/well; and MDA-MB-468 was employed with 10,000 cells/well. The cells were treated with the compounds listed in Examples which were diluted in various concentrations. Upon completion of the compounds treatment, NCI-N87 cells were cultured at 37° C. under 5% CO2 for 96 hours, and MDA-MB-468 cells were cultured at 37° C. in air for 96 hours. Subsequently, the cells were observed under microscope and drug precipitation and particular findings were investigated and recorded. And then, the 96-well plate was placed at room temperature for 30 minutes, added with 20 μL/well of CellTiter-Glo solution (Cat No. G7573, Promega) and shaken for 10 minutes, followed by being subjected to the measurement using PHERAstar™ microplate reader (BMG LABTECH) according to the supplier's general luminometer protocol. Wells where only culture liquid added without cell plating were used as a negative control, whereas wells where culture liquid containing 0.1% DMSO instead of the compounds listed in Examples were used as a positive control.

For another test, the system named is MDA-MB-468. Nature of the test: Cell growth inhibition assay (CellTiter-Glo), breast cancer cell line MDA-MB-468. As to conditions: Homo sapiens; MDA-MB-468 cells, 96 hours. On the procedure:
as §1

By IC50 is commonly meant the midpoint of a concentration-inhibition curve. A higher IC50 goes with lower potency.

T1 sequence (P40763 whole entry): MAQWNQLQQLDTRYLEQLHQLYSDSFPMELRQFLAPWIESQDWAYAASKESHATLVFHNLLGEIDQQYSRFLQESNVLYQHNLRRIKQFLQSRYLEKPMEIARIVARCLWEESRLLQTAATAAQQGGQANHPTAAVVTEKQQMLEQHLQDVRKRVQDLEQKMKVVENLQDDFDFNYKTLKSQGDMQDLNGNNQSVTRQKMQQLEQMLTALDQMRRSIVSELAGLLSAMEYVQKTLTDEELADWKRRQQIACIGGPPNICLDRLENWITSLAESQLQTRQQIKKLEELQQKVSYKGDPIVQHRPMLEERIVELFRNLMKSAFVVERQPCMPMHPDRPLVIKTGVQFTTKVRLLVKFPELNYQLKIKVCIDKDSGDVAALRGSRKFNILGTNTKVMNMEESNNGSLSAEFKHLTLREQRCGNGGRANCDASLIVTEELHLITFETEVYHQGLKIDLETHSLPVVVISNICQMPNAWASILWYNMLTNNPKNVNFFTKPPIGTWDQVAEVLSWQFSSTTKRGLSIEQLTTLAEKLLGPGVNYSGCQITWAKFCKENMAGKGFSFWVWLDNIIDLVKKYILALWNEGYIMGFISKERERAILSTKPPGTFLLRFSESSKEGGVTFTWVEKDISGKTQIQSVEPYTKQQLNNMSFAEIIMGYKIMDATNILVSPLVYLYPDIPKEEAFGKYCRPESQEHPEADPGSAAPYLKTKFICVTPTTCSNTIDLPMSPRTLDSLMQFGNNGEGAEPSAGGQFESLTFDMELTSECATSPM

As to `CS(=O)(=O)C1CCOc2cc3sc(C(=O)Nc4cc(Cl)nc(Oc5ccc(Cl)cc5F)c4)cc3cc21` (stereo not drawn) [Example 23, N-(2-chloro-6-(4-chloro-2-fluorophenoxy)pyridin-4-yl)-4-(methylsulfonyl)-3,4-dihydro-2H-thieno[3,2-g]chromene-7-carboxamide], the figures for the IC50 against STAT3, with NCI-N87 and in the test with MDA-MB-468 were 0.0063 µM, 0.0056 µM and 0.0028 µM, respectively.

With `CS(=O)(=O)C1COCc2cc3sc(C(=O)Nc4cc(Cl)nc(Oc5ccc(Cl)cc5)c4)cc3cc21` (stereo not drawn) [Example 12, N-(2-chloro-6-(4-chlorophenoxy)pyridin-4-yl)-5-(methylsulfonyl)-5,8-dihydro-6H-thieno[3,2-g]isochromene-2-carboxamide], the IC50 against STAT3 is 0.003 µM; in the test with NCI-N87, 0.0018 µM; in the test with MDA-MB-468, 0.0028 µM.

As to `COc1cc(Cl)cc(Oc2cc(NC(=O)c3cc4cc5c(cc4s3)OCCC5S(C)(=O)=O)cc(Cl)n2)c1` (stereo not drawn) [Example 30, N-(2-chloro-6-(3-chloro-5-methoxyphenoxy)pyridin-4-yl)-4-(methylsulfonyl)-3,4-dihydro-2H-thieno[3,2-g]chromene-7-carboxamide], the IC50 at STAT3 was 0.02 µM; with NCI-N87, 0.025 µM; with MDA-MB-468 it was 0.0085 µM.

`CS(=O)(=O)[C@]1(F)CCOc2cc3sc(C(=O)Nc4cc(Cl)nc(Oc5ccc(Cl)cc5)c4)cc3cc21` [Example 46, (R)—N-(2-chloro-6-(4-chlorophenoxy)pyridin-4-yl)-4-fluoro-4-(methylsulfonyl)-3,4-dihydro-2H-thieno[3,2-g]chromene-7-carboxamide]: the results for the half-inhibitory concentration (IC50) on STAT3, in the test on NCI-N87 and in the test with MDA-MB-468 were 0.14 µM, 0.56 µM and more than 0.1 µM, respectively.

Take `CS(=O)(=O)C1CCOc2cc3sc(C(=O)Nc4cc(Cl)nc(Oc5cc(F)cc(Cl)c5)c4)cc3cc21` (stereo not drawn) [Example 31, N-(2-chloro-6-(3-chloro-5-fluorophenoxy)pyridin-4-yl)-4-(methylsulfonyl)-3,4-dihydro-2H-thieno[3,2-g]chromene-7-carboxamide]: the half-maximal inhibitory concentration (IC50) was found to be 0.008 µM against STAT3, 0.009 µM in the test with NCI-N87 and 0.0022 µM in the test on MDA-MB-468.

As for `CS(=O)(=O)C1CCOc2cc3sc(C(=O)Nc4cc(Cl)nc(Oc5ccc(F)c(F)c5)c4)cc3cc21` (stereo not drawn) [Example 34, N-(2-chloro-6-(3,4-difluorophenoxy)pyridin-4-yl)-4-(methylsulfonyl)-3,4-dihydro-2H-thieno[3,2-g]chromene-7-carboxamide], the IC50 on STAT3 was found to be 0.0064 µM; with NCI-N87, 0.0092 µM; with MDA-MB-468, 0.0023 µM.

With `CS(=O)(=O)C1CCOc2cc3sc(C(=O)Nc4cc(Cl)nc(Oc5ccc(OC(F)(F)F)cc5)c4)cc3cc21` (stereo not drawn) [Example 28, N-(2-chloro-6-(4-(trifluoromethoxy)phenoxy)pyridin-4-yl)-4-(methylsulfonyl)-3,4-dihydro-2H-thieno[3,2-g]chromene-7-carboxamide], the half-maximal inhibitory concentration (IC50) on STAT3 turned out to be 0.0051 µM; in the test on NCI-N87, 0.0056 µM; with MDA-MB-468 it was 0.002 µM.

Take `CC1(C)CCN(S(C)(=O)=O)c2cc3cc(C(=O)Nc4cc(Cl)nc(Oc5ccc(Cl)cc5)c4)sc3cc21` [Example 4, N-(2-chloro-6-(4-chlorophenoxy)pyridin-4-yl)-8,8-dimethyl-5-(methylsulfonyl)-5,6,7,8-tetrahydrothieno[2,3-g]quinoline-2-carboxamide]: the IC50 on STAT3 came to 0.93 µM; with NCI-N87 it was 4.1 µM.

Consider `Cc1ccc(Oc2cc(NC(=O)c3cc4cc5c(cc4s3)OCCC5S(C)(=O)=O)cc(Cl)n2)cc1` (stereo not drawn) [Example 15, N-(2-chloro-6-(p-tolyloxy)pyridin-4-yl)-4-(methylsulfonyl)-3,4-dihydro-2H-thieno[3,2-g]chromene-7-carboxamide], for which the concentration for half-maximal inhibition (IC50) against STAT3 is 0.018 µM; in the test with NCI-N87, 0.035 µM; in the test on MDA-MB-468 it was 0.0089 µM.

`CS(=O)(=O)N1CCOc2cc3sc(C(=O)Nc4cc(Cl)nc(Oc5ccc(Cl)cc5)c4)cc3cc21` [Example 1, N-(2-chloro-6-(4-chlorophenoxy)pyridin-4-yl)-1-(methylsulfonyl)-2,3-dihydro-1H-thieno[3′,2′:4,5]benzo[1,2-b][1,4]oxazine-7-carboxamide]: the IC50 against STAT3 came to 0.0026 µM; in the test with NCI-N87, 0.0083 µM.

For `CS(=O)(=O)C1CCOc2cc3sc(C(=O)Nc4cc(Cl)nc(Oc5ccccc5C(F)(F)F)c4)cc3cc21` (stereo not drawn) [Example 39, N-(2-chloro-6-(2-(trifluoromethyl)phenoxy)pyridin-4-yl)-4-(methylsulfonyl)-3,4-dihydro-2H-thieno[3,2-g]chromene-7-carboxamide], the half-inhibitory concentration (IC50) at STAT3 amounted to 0.014 µM.

On to `CS(=O)(=O)N1CCCOc2cc3sc(C(=O)Nc4cc(Cl)nc(Oc5ccc(Cl)cc5)c4)cc3cc21` [Example 3, N-(2-chloro-6-(4-chlorophenoxy)pyridin-4-yl)-1-(methylsulfonyl)-1,2,3,4-tetrahydrothieno[3′,2′:4,5]benzo[1,2-b][1,4]oxazepine-8-carboxamide], for which the IC50 was 0.01 µM at STAT3 and 0.045 µM in the test with NCI-N87.

`CC1(C)CN(S(C)(=O)=O)c2cc3cc(C(=O)Nc4cc(Cl)nc(Oc5ccc(Cl)cc5)c4)sc3cc2O1` [Example 2, N-(2-chloro-6-(4-chlorophenoxy)pyridin-4-yl)-3,3-dimethyl-1-(methylsulfonyl)-2,3-dihydro-1H-thieno[3′,2′:4,5]benzo[1,2-b][1,4]oxazine-7-carboxamide]: the IC50 against STAT3 came to 0.17 µM; with NCI-N87 it was 1.2 µM.

On STAT3, `Cc1ccc(Oc2cc(NC(=O)c3cc4cc5c(cc4s3)OCCC5S(C)(=O)=O)cc(Cl)n2)cc1Cl` (stereo not drawn) [Example 38, N-(2-chloro-6-(3-chloro-4-methylphenoxy)pyridin-4-yl)-4-(methylsulfonyl)-3,4-dihydro-2H-thieno[3,2-g]chromene-7-carboxamide] registered an IC50 of 0.0088 µM.

For the molecule `CS(=O)(=O)N1CCCc2cc3sc(C(=O)Nc4cc(Cl)nc(Oc5ccc(Cl)cc5)c4)cc3cc21` [Example 6, N-(2-chloro-6-(4-chlorophenoxy)pyridin-4-yl)-5-(methylsulfonyl)-5,6,7,8-tetrahydrothieno[2,3-g]quinoline-2-carboxamide], the results for the half-maximal inhibitory concentration (IC50) at STAT3 and in the test with NCI-N87 were 0.003 µM and 0.0055 µM, respectively.

With `CC(C)(c1ccc(Cl)cc1)c1cc(Cl)cc(NC(=O)c2cc3cc4c(cc3s2)OCCN4S(C)(=O)=O)c1` [Example 56, N-(3-chloro-5-(2-(4-chlorophenyl)propan-2-yl)phenyl)-1-(methylsulfonyl)-2,3-dihydro-1H-thieno[3′,2′:4,5]benzo[1,2-b][1,4]oxazine-7-carboxamide], the results for the IC50 on STAT3 and in the test on NCI-N87 were 0.0028 µM and 0.019 µM, respectively.

In the case of `CS(=O)(=O)C1CCOc2cc3sc(C(=O)Nc4cc(Cl)nc(Oc5cccc(Cl)c5F)c4)cc3cc21` (stereo not drawn) [Example 36, N-(2-chloro-6-(3-chloro-2-fluorophenoxy)pyridin-4-yl)-4-(methylsulfonyl)-3,4-dihydro-2H-thieno[3,2-g]chromene-7-carboxamide], the IC50 against STAT3 was 0.014 µM.

For the molecule `CS(=O)(=O)N1CCNc2cc3sc(C(=O)Nc4cc(Cl)nc(Oc5ccc(Cl)cc5)c4)cc3cc21` [Example 50, N-(2-chloro-6-(4-chlorophenoxy)pyridin-4-yl)-1-(methylsulfonyl)-1,2,3,4-tetrahydrothieno[2,3-g]quinoxaline-7-carboxamide], the IC50 was determined as 0.0082 µM against STAT3 and 0.0091 µM in the test on NCI-N87.

In turn, `CS(=O)(=O)C1CCOc2cc3sc(C(=O)Nc4cc(Cl)nc(Oc5cc(Cl)ccc5F)c4)cc3cc21` (stereo not drawn) [Example 35, N-(2-chloro-6-(5-chloro-2-fluorophenoxy)pyridin-4-yl)-4-(methylsulfonyl)-3,4-dihydro-2H-thieno[3,2-g]chromene-7-carboxamide] returned a concentration for half-maximal inhibition (IC50) against STAT3 of 0.01 µM.
